According to ChEMBL document CHEMBL4840313, “Bioisosteric replacements of the indole moiety for the development of a potent and selective PI3Kδ inhibitor: Design, synthesis and biological evaluation” (Eur J Med Chem, 2021):
pIC50: −log10 of the molar value.

Legend:
[1] = Induction of apoptosis in human MOLM16 cells assessed as necrotic cells at 2 uM incubated for 48 hrs by Annexin V and propidium iodide Staining based assay (reference value: 0.44 %); format: functional, MOLM-16
[2] = Induction of cell cycle arrest in human MOLM16 cells assessed as accumulation at subG1 phase at 1 uM incubated for 24 hrs by propidium iodide /RNase staining based flow cytometry(Rvb =4.02 %); format: functional, MOLM-16
[3] = Antitumor activity against human MOLM16 cells xenografted in BALB/c mouse assessed as tumor growth inhibition at 40 mg/kg, po administered daily for 14 days; format: functional, MOLM-16; conditions: 336 h, time 14 day, read-out: TGI
[4] = Induction of cell cycle arrest in human MOLM16 cells assessed as accumulation at subG1 phase at 2 uM incubated for 24 hrs by propidium iodide /RNase staining based flow cytometry(Rvb =4.02 %); format: functional, MOLM-16
[5] = AUC (0 to infinity) in Sprague-Dawley rat at 10 mg/kg, po; format: ADME, organism-based; parameters: route oral, time infinity, dose 10 mg/kg; conditions: in vivo
[6] = Tmax in Sprague-Dawley rat at 10 mg/kg, po; format: ADME, organism-based; conditions: in vivo
[7] = AUC (0 to infinity) in Sprague-Dawley rat at 2 mg/kg, iv; format: ADME, organism-based; parameters: time infinity, route intravenous, dose 2 mg/kg; conditions: in vivo
[8] = Antiproliferative activity against human MOLM16 cells assessed as reduction in cell viability measured after 48 hrs by CCK8 assay; format: functional, cell-based, MOLM-16; conditions: MOLM16, 48 h
[9] = Induction of apoptosis in human MOLM16 cells assessed as necrotic cells at 1 uM incubated for 48 hrs by Annexin V and propidium iodide Staining based assay (reference value: 0.44 %); format: functional, MOLM-16
[10] = MRT (0 to infinity) in Sprague-Dawley rat at 2 mg/kg, iv; format: ADME, organism-based; conditions: in vivo
[11] = Induction of apoptosis in human MOLM16 cells assessed as early apoptotic cells at 1 uM incubated for 48 hrs by Annexin V and propidium iodide Staining based assay (reference value: 16.4 %); format: functional, MOLM-16
[12] = AUC (0 to t) in Sprague-Dawley rat at 2 mg/kg, iv; format: ADME, organism-based; parameters: dose 2 mg/kg; conditions: in vivo
[13] = Induction of apoptosis in human MOLM16 cells assessed as late apoptotic cells at 1 uM incubated for 48 hrs by Annexin V and propidium iodide Staining based assay (reference value: 6.77 %); format: functional, MOLM-16
[14] = Induction of cell cycle arrest in human MOLM16 cells assessed as accumulation at S phase at 1 uM incubated for 24 hrs by propidium iodide /RNase staining based flow cytometry(Rvb =31.8 %); format: functional, MOLM-16
[15] = Acute toxicity in ICR mouse assessed as survival at 90 mg/kg, po administered for 7 days and observed for 7 days; format: organism-based; conditions: in vivo, 168 h, time 7 day
[16] = Induction of cell cycle arrest in human MOLM16 cells assessed as accumulation at G2 phase at 1 uM incubated for 24 hrs by propidium iodide /RNase staining based flow cytometry(Rvb =14.7 %); format: functional, MOLM-16
[17] = Induction of apoptosis in human MOLM16 cells assessed as necrotic cells at 5 uM incubated for 48 hrs by Annexin V and propidium iodide Staining based assay (reference value: 0.44 %); format: functional, MOLM-16
KG-1 = test: Antiproliferative activity against human KG-1 cells assessed as reduction in cell viability measured after 48 hrs by CCK8 assay; format: functional, cell-based; conditions: KG-1, 48 h
[18] = Acute toxicity in ICR mouse assessed as behavioral changes at 90 mg/kg, po administered for 7 days and observed for 7 days; format: organism-based; conditions: in vivo, 168 h, time 7 day
[19] = Oral bioavailability in Sprague-Dawley rat at 10 mg/kg; format: ADME, organism-based; conditions: in vivo
[20] = AUC (0 to t) in Sprague-Dawley rat at 10 mg/kg, po; format: ADME, organism-based; parameters: dose 10 mg/kg; conditions: in vivo
[21] = Volume of distribution in steady state in Sprague-Dawley rat at 2 mg/kg, iv; format: ADME, organism-based; conditions: in vivo
[22] = Induction of cell cycle arrest in human MOLM16 cells assessed as accumulation at S phase at 5 uM incubated for 24 hrs by propidium iodide /RNase staining based flow cytometry(Rvb =31.8 %); format: functional, MOLM-16
[23] = Induction of cell cycle arrest in human MOLM16 cells assessed as accumulation at G2 phase at 5 uM incubated for 24 hrs by propidium iodide /RNase staining based flow cytometry(Rvb =14.7 %); format: functional, MOLM-16
[24] = Toxicity in BALB/c nude mouse xenografted with human MOLM16 cells assessed as change in body weight at 20 to 40 mg/kg, po administered once daily for 14 days; format: organism-based; conditions: in vivo, 336 h, dose 20-40 mg/kg, time 14 day
[25] = Acute toxicity in ICR mouse assessed as damage in liver at 90 mg/kg, po measured after 7 days by H&E staining based immunohistochemistry; format: organism-based; conditions: in vivo, 168 h, time 7 day
[26] = Induction of apoptosis in human MOLM16 cells assessed as viable cells at 5 uM incubated for 48 hrs by Annexin V and propidium iodide Staining based assay (reference value: 76.3 %); format: functional, MOLM-16; conditions: read-out: Activity
[27] = Acute toxicity in ICR mouse assessed as damage in kidney at 90 mg/kg, po measured after 7 days by H&E staining based immunohistochemistry; format: organism-based; conditions: in vivo, 168 h, time 7 day
[28] = Cmax in Sprague-Dawley rat at 10 mg/kg, po; format: ADME, organism-based; parameters: route oral, dose 10 mg/kg; conditions: in vivo
HL-60 = test: Antiproliferative activity against human HL-60 cells assessed as reduction in cell viability measured after 48 hrs by CCK8 assay; format: functional, cell-based; conditions: HL-60, 48 h
[29] = Half life in Sprague-Dawley rat at 2 mg/kg, iv; format: ADME, organism-based; conditions: in vivo
[30] = Induction of cell cycle arrest in human MOLM16 cells assessed as accumulation at subG1 phase at 5 uM incubated for 24 hrs by propidium iodide /RNase staining based flow cytometry(Rvb =4.02 %); format: functional, MOLM-16
[31] = Induction of apoptosis in human MOLM16 cells assessed as early apoptotic cells at 5 uM incubated for 48 hrs by Annexin V and propidium iodide Staining based assay (reference value: 16.4 %); format: functional, MOLM-16
[32] = Acute toxicity in ICR mouse assessed as damage in lung at 90 mg/kg, po measured after 7 days by H&E staining based immunohistochemistry; format: organism-based; conditions: in vivo, 168 h, time 7 day
[33] = Antitumor activity against human MOLM16 cells xenografted in BALB/c mouse assessed as tumor growth inhibition at 20 mg/kg, po administered daily for 14 days; format: functional, MOLM-16; conditions: 336 h, time 14 day, read-out: TGI
[34] = Induction of cell cycle arrest in human MOLM16 cells assessed as accumulation at G1 phase at 5 uM incubated for 24 hrs by propidium iodide /RNase staining based flow cytometry(Rvb =46.8 %); format: functional, MOLM-16
[35] = Acute toxicity in ICR mouse assessed as damage in spleen at 90 mg/kg, po measured after 7 days by H&E staining based immunohistochemistry; format: organism-based; conditions: in vivo, 168 h, time 7 day
EOL1 = test: Antiproliferative activity against human EOL1 cells assessed as reduction in cell viability measured after 48 hrs by CCK8 assay; format: functional, cell-based; conditions: EOL1, 48 h
[36] = Induction of cell cycle arrest in human MOLM16 cells assessed as accumulation at G1 phase at 2 uM incubated for 24 hrs by propidium iodide /RNase staining based flow cytometry(Rvb =46.8 %); format: functional, MOLM-16
[37] = Induction of apoptosis in human MOLM16 cells assessed as late apoptotic cells at 5 uM incubated for 48 hrs by Annexin V and propidium iodide Staining based assay (reference value: 6.77 %); format: functional, MOLM-16
[38] = Induction of cell cycle arrest in human MOLM16 cells assessed as accumulation at G1 phase at 1 uM incubated for 24 hrs by propidium iodide /RNase staining based flow cytometry(Rvb =46.8 %); format: functional, MOLM-16
[39] = Induction of cell cycle arrest in human MOLM16 cells assessed as accumulation at S phase at 2 uM incubated for 24 hrs by propidium iodide /RNase staining based flow cytometry(Rvb =31.8 %); format: functional, MOLM-16
[40] = Induction of apoptosis in human MOLM16 cells assessed as late apoptotic cells at 2 uM incubated for 48 hrs by Annexin V and propidium iodide Staining based assay (reference value: 6.77 %); format: functional, MOLM-16
[41] = Induction of apoptosis in human MOLM16 cells assessed as early apoptotic cells at 2 uM incubated for 48 hrs by Annexin V and propidium iodide Staining based assay (reference value: 16.4 %); format: functional, MOLM-16
[42] = Induction of apoptosis in human MOLM16 cells assessed as viable cells at 2 uM incubated for 48 hrs by Annexin V and propidium iodide Staining based assay (reference value: 76.3 %); format: functional, MOLM-16; conditions: read-out: Activity
[43] = Antiproliferative activity against p110 unexpressed human MM1.R cells assessed as reduction in cell viability measured after 48 hrs by CCK8 assay; format: functional; conditions: MM.1R
[44] = Half life in Sprague-Dawley rat at 10 mg/kg, po; format: ADME, organism-based; conditions: in vivo
[45] = Induction of apoptosis in human MOLM16 cells assessed as viable cells at 1 uM incubated for 48 hrs by Annexin V and propidium iodide Staining based assay (reference value: 76.3 %); format: functional, MOLM-16; conditions: read-out: Activity
[46] = Induction of cell cycle arrest in human MOLM16 cells assessed as accumulation at G2 phase at 2 uM incubated for 24 hrs by propidium iodide /RNase staining based flow cytometry(Rvb =14.7 %); format: functional, MOLM-16
[47] = Acute toxicity in ICR mouse assessed as damage in heart at 90 mg/kg, po measured after 7 days by H&E staining based immunohistochemistry; format: organism-based; conditions: in vivo, 168 h, time 7 day

## O=S(=O)(Nc1cc(-c2cnc3[nH]ncc3c2)cnc1Cl)c1ccccc1
[1]
  Activity: 1.47%
[2]
  Activity: 3.5%
[3]
  inhibition in vivo at 40 mg/kg: 49%
[4]
  Activity: 3.27%
[5]
  AUC(0-inf): 9220 ng·h/mL
[6]
  Tmax: 4 h
[7]
  AUC(0-inf): 10500 ng·h/mL
[8]
  pIC50: 6.06
[9]
  Activity: 1.6%
[10]
  MRT: 3.12 h
[11]
  Activity: 16%
[12]
  AUC(0-t): 10200 ng·h/mL
[13]
  Activity: 13.6%
[14]
  Activity: 31.1%
[15]
  Activity: Non-Toxic
[16]
  Activity: 11.8%
[17]
  Activity: 0.6%
KG-1
  pIC50: 5.24
[18]
  Activity: Non-Toxic
[19]
  bioavailability: 17.6%
[20]
  AUC(0-t): 9040 ng·h/mL
[21]
  Vdss: 2.12 L/kg
[22]
  Activity: 30.1%
[23]
  Activity: 8.07%
[24]
  Activity: Non-Toxic
[25]
  Activity: Non-Toxic
[26]
  viability at 5 µM: 10.7%
[27]
  Activity: Non-Toxic
[28]
  Cmax: 1100 ng/mL
HL-60
  pIC50: 5.65
[29]
  half-life: 7.68 h
[30]
  Activity: 11.1%
[31]
  Activity: 46.1%
[32]
  Activity: Non-Toxic
[33]
  inhibition in vivo at 20 mg/kg: 31%
[34]
  Activity: 49.2%
[35]
  Activity: Non-Toxic
EOL1
  pIC50: 5.55
[36]
  Activity: 56.7%
[37]
  Activity: 42.6%
[38]
  Activity: 54.9%
[39]
  Activity: 28.6%
[40]
  Activity: 16.1%
[41]
  Activity: 24.6%
[42]
  viability at 2 µM: 57.8%
[43]
  pIC50: 4.64
[44]
  half-life: 3.74 h
[45]
  viability at 1 µM: 69.8%
[46]
  Activity: 10.8%
[47]
  Activity: Non-Toxic
